Here are results for four molecules from paper PMC5792912 (Royal Society Open Science, 2018).

For data set [1], the target named is T1, COMT in HLC (Homo sapiens, UniProt P21964).
T1 construct: Pooled human liver cytosol (HLC) from seven male donors; tissue Research Institute for Liver Diseases (Shanghai, China) Lot; QROX; host or cells: pooled human liver cytosol, seven male donors
T1 sequence (P21964 1-221 isoform P21964-2): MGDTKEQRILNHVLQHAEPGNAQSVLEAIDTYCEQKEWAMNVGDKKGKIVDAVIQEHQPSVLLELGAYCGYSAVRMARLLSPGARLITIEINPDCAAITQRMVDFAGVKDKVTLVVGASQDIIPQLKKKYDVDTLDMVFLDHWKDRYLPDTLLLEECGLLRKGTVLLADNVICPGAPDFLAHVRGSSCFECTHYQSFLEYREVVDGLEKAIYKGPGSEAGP
Briefly: Methylation kinetics in pooled human liver cytosol (HLC). It counts as in vitro ADME. The note with it: for Clint: intrinsic clearance (Vmax/Km); for COMT substrate in human liver cytosol: human liver cytosol with SAM. The method, then:
(§1) Reaction mixtures were pre-incubated at 37°C for 5 min and initiated by the addition of SAM to a final concentration of 0.4 mM. The samples were incubated for a certain period of time and the reaction was terminated by the addition of 200 µl ice-cold acetonitrile and then centrifuged at 20 000g, 4°C, for 20 min. Control incubations were performed either without human liver cytosol, or without SAM or without substrate. The supernatants were subjected to ultra-fast liquid chromatography (UFLC) coupled with a diode array detector (DAD) and an electrospray ionization (ESI) mass spectrometer (MS) analyzer.
(§2) 7,8-DHCs and their methylated conjugates were analysed by a UFLC spectrometry system (Shimadzu, Kyoto, Japan), equipped with two LC-20AD pumps, a DGU-20A3 vacuum degasser, a SIL-20ACHT auto-sampler, a CTO-20AC column oven, an SPD-M 20A DAD, a CBM-20A communications bus module, a mass detector (2010EV) with an ESI interface and a computer equipped with UFLC-MS SOLUTION v. 3.41 software. A Shimadzu ODS (75.0 × 2.0 mm, 3 µm) analytical column was used to separate 7,8-DHCs and their methylated conjugates. Column temperature was kept at 40°C. […] The methylation samples were stable over 72 h at 4°C. 7,8-DHC methylation was quantified by the standard curves of the methylated conjugates at the detector wavelength of 325 nm, which were linear from 0.01 to 10 µM (the correlation coefficient was 0.999).
(§3) For estimating kinetic parameters, 7,8-DHCs (0.1–40 µM) were incubated with pooled HLC and S-COMT. 7,8-DHCs (0.1–40 µM) were incubated with HLC or S-COMT for 5 min, using a microsomal protein concentration of 0.5 mg ml^−1 or 0.002 mg ml^−1 for HLC and S-COMT, respectively. Kinetic constants for 7,8-DHCs methylation by HLC and S-COMT were obtained by fitting the Michaelis–Menten kinetics equation (3.1) to experimental data.
(§4) For the Michaelis–Menten kinetic model, 3.1 v=Vmax×[S]/Km+[S], where v is the rate of reaction, [S] is the substrate concentration, Vmax is the maximum velocity estimate and Km is the apparent affinity constant.
(§5) All incubations were performed in duplicate. Kinetic constants were obtained using GraphPad PRISM 6 (GraphPad Software, Inc. La Jolla, CA) software.

Data set [2] addresses T2, recombinant human soluble COMT (S-COMT) (Homo sapiens, UniProt P21964).
T2 construct: made in house
T2 sequence (P21964 1-221 isoform P21964-2): T1 sequence (P21964 1-221 isoform P21964-2)
Briefly: Methylation kinetics with recombinant human soluble COMT. Format: in vitro ADME. The note with it: for Clint: intrinsic clearance (Vmax/Km). The protocol: as §1, §2, §3, §4, §5

For data set [3], the target named is T1, COMT in HLC. Briefly: Methylation kinetics in pooled human liver cytosol (HLC). Format: in vitro ADME. The note with it: identified by NMR.
For data set [4] the following is noted: after administration in rats; cited from earlier work.
The subject of a further data set is human hepatocytes. The settings on record: cited from earlier work.

For `O=c1ccc2ccc(O)c(O)c2o1` [daphnetin, 7,8-dihydroxycoumarin], the Vmax – broadly, the top rate of the reaction or transport when substrate is in excess – at COMT in HLC [1] (HLC, best-fit value ± s.e.) was found to be 0.11 ± 0.0034 nmol/min/mg; in data set [2] (best-fit value ± s.e.) it was 81.4 ± 2.4 nmol/min/mg. The Clint at COMT in HLC [1] (HLC) came out at 0.52 µL/min/mg; in data set [2], 169.5 µL/min/mg. Further, at COMT in HLC [1], the “COMT substrate in human liver cytosol” value is “COMT substrates”. At COMT in HLC [3], the methylated metabolite identified is listed as 8-O-methylated 7,8-DHC. For the same molecule, the half-life – broadly, the time in which the quantity being followed falls by half – in data set [4] is on record as 15 min. For the same molecule, the methyl-derived metabolites with human hepatocytes is given as 37.3%.
As for `O=c1cc(-c2ccccc2)c2ccc(O)c(O)c2o1` [4-PDPN, 4-phenyl daphnetin], the values for the Clint (at COMT in HLC [1] (HLC); in data set [2]) were 1.91 µL/min/mg and 424.0 µL/min/mg, respectively. The “COMT substrate in human liver cytosol” value on COMT in HLC [1] is “COMT substrates”. Also, the methylated metabolite identified at COMT in HLC [3] was 8-O-methylated 7,8-DHC.
The matching figures for `Cc1cc(=O)oc2c(O)c(O)ccc12` [4-MDPN, 4-methyl daphnetin]: 0.70 µL/min/mg, 154.8 µL/min/mg, “COMT substrates” and 8-O-methylated 7,8-DHC.
In the same order, the values of `O=C(O)Cc1cc(=O)oc2c(O)c(O)ccc12` [4-ADPN, 4-acetic acid daphnetin] are 0.017 µL/min/mg, 31.1 µL/min/mg, “COMT substrates” and 8-O-methylated 7,8-DHC.
